Experimental data published in US7833977B2, “Use of L-Carnitine as stabilizing agent of proteins” (Sigma-Tau Industrie Farmaceutiche Riunite S.p.A., priority 2000, dated 2010).
Entries after “also recorded” stand apart in the source; their conditions may differ.

Key:
rat lenses = assay: Rat lens organ culture exposed to H2O2 with or without L-carnitine; type: cell-based, Sprague-Dawley rats; conditions: after 24 h incubation with H2O2 ± L-carnitine
Description: Four-month-old Sprague-Dawley rats were anesthesized with 5 mg/kg xylazine and 65 mg/kg ketamine, and decapitated. Immediately after, eyes were enucleated, extracted and placed in 2 ml of modified TC-199 medium. Lens integrity was assessed by measuring protein leached into the medium after 30-60 min of culture; damaged lenses were discarded. One lens of each pair was placed in culture medium with no H2O2 and used as a control. […] The controlateral lens of each pair was placed in medium and, after equilibration under 5% CO2 at 37° C., was exposed to 500 μM H2O2 in the absence or presence of 300 μM L-carnitine. After 24 h of incubation, morphological characteristics and changes were recorded, and the lenses were photographed. The incubated lenses were rinsed with saline solution, blotted on filter paper, weighed, and then immediately processed for biochemical analysis. To determine lactate dehydrogenase (LDH) leakage, lenses were incubated individually in each different medium, and the medium was harvested daily and saved for LDH analysis.
Decapsulated lenses were homogenized with disposable pestles and then sonicated in extract buffer (20 mM HEPES, 0.2 mM EDTA, 0.5 mM dithiothreitol, 450 mM NaCl, 25% glycerol, […] leupeptin, 0.5 μg/ml protinin, 0.5 mM phenylmethanesulfonyl fluoride) on ice. Aliquots of the homogenate from each of the incubated lenses were removed for GSH and L-carnitine analysis. The remainder was centrifuged for 25 min at 20,000×g to separate the supernatant from the pellet. The pellet was washed with 1.0 ml buffer and dried under nitrogen. This fraction was designated “water-insoluble fraction”. The supernatant fraction was dialyzed twice against 3 ml of 0.025 mol/l phosphate buffer, pH 7.4 for 48 h and lyophilized. This fraction was designated “water-soluble” fraction. The water-soluble and water-insoluble fractions were delipidated with 3.0 ml chloroform:methanol (2:1) for 16 h under shaking followed by centrifugation at 2,000 g for 5 min.
The water-insoluble proteins were suspended in 0.2 M N-ethylmorpholine acetate (pH 8.1). An aliquot (10%) was used to quantitate the amount of total protein. Samples were digested by the sequential addition of proteolytic enzymes (collagenase, pronase, aminopeptidase and carboxypeptidase A, carboxypeptidase B and carboxypeptidase y), directly to the reaction mixture at 37° C. in the presence of 0.02% sodium azide. After enzymatic digestion, the free N-(γ-glutamyl)lysine isopeptide cross-link was resolved by HPLC and quantitated by amino acid analysis (Hohl, D., et al (1991), J Biol Chem. 266, 6626-6636). In a related set of experiments, the isopeptide content of lenses was determined without prior extraction. […]

α-crystallin [1] = assay: Chaperone-like activity of α-crystallin from treated lenses (heat-induced βL-crystallin aggregation, light scattering at 360 nm); type: biochemical, rat; conditions: 100 or 200 μg α-crystallin + 200 μg βL-crystallin; 55° C. or 58° C.
Description: The following experiments were performed essentially as described elsewhere (Horwitz, J. (1992) Proc Natl Acad Sci USA. 89, 10449-10453). The chaperone-like activity of α-crystallin from control and H2O2±L-carnitine treated lenses was determined by heat denaturation studies. The extent to which the unmodified or modified α-crystallin preparation protected βL-crystallin (used as the target protein) from heat-induced denaturation and aggregation was assessed as follows: 100 μg or 200 μg of α-crystallin were added to 200 μg of βL-crystallin in a 1.5-ml cuvette and made up to a final volume of 1 ml with 50 mM phosphate buffer, pH 7.0. The cuvette was placed in a temperature-regulated cell holder attached to a UV spectrophotometer. Light scattering due to protein denaturation and aggregation was monitored at. 360 nm absorbance for 3,000 s at 55° C. or for 1,800 s at 58° C.
The chaperone properties of the purified water-soluble α-crystallin were determined by crystallin (target protein) aggregation assay. Characteristically, βL-crystallin aggregates at elevated temperatures. The addition of α-crystallin either prevents or decreases the heat-induced aggregation of βL-crystallin, which is measured by light scattering at 360 nm. Since the ratio of α to β determines the degree of protection against heat-induced aggregation, we used 100 μg or 200 μg of α-crystallin and 200 μg of βL-crystallin. […]

α-crystallin [2] = assay: Tryptophan fluorescence of α-crystallin fractions from treated lenses; parameters: species or system rat; conditions: excitation 295 nm, emission 330 nm
Source text: The loss of-protein tryptophan fluorescence, an indicator of tryptophan oxidation, seems to be a marker of crystallin integrity. We therefore measured-tryptophan fluorescence in lens crystallin (Perkin-Elmer 650-40 spectrophotometer) according to a previously described method (Jones, R. H. V., and Hothersall, J. S. (1993), Exp Eye Res 57, 783-790). The excitation wavelength was set to 295 nm, and the fluorescence emission was detected at 330 nm.

α-crystallin [3] = assay: GFAP gel forming assay (falling ball viscosimetry) with α-crystallin from treated lenses; type: biochemical, rat; conditions: α-crystallin from H2O2 ± L-carnitine-treated lenses; 37° C., 1 h
Source text: The sedimentation assay devised by Nicholl and Quinlan (Nicholl, I. D., and Quinlan, R. A. (1994), EMBO J 13, 945-953) was used to assess α-crystallin-induced inhibition of intermediate filament assembly. Purified porcine glial fibrillary acidic: protein (GFAP) was used for these studies; it was purified from porcine spinal cord by axonal flotation as described previously (Pemg, M. D., et al (1999), J Cell Sci. 112, 2099-2112, MacLean-Fletcher, S., and Pollard, T. D. (1980), Biochem Biophys Res Commun 96, 18-27). The gel formation assay was based on a method used to monitor actin binding protein activity by falling ball viscometry (Pemg, M. D., et al (1999), J Cell Sci. 112, 2099-2112). α-Crystallins were mixed with GFAP in 8 M urea, 20 mM Tris-HCI, pH 8.0, 5 mM EDTA, 25 mM 2-mercaptoethanol and then stepwise dialyzed in 10 mM Tris-HCI, pH 8.0, 25 mM 2-mercaptoethanol. Assembly of the GFAP intermediate filaments, in the presence or absence of α-crystallin, was induced by the addition of a 20-fold concentrated buffer to give a final concentration of 100 mM imidazole-HCI, pH 6.8, 0.5 mM DTT. A 100-μl aliquot of sample was loaded into a glass tube and used for the viscosity assay. The tube was then immersed in a 37° C. water bath for 1 h before the gel formation assay. A ball was then placed into the tube, and the ability of the solution to support the ball was monitored. […]

lens crystallins = conditions: Swamy-Mruthinti and Carter 1999; cited from earlier work

Compound | Lens clarity / opacification (rat lenses) | Lens morphology by optical and electron microscopy (rat lenses) | Capacity of α-crystallin to prevent heat-induced aggregation of βL-crystallin (α-crystallin [1]) | Loss of tryptophan fluorescence in α-crystallin (α-crystallin [2]) | Inhibition of GFAP gel formation by α-crystallin (α-crystallin [3]) | Effect on in vitro glycation of lens crystallins (lens crystallins)
OO [H2O2] | became opaque | Ballooning, liquefaction and various degrees of fiber swelling | significant decrease | 2.7 fold | did not affect gel formation | –
C[N+](C)(C)C[C@H](O)CC(=O)[O-] [L-carnitine] | remained clear; also recorded: remained transparent | cell shape was unaltered and that fiber cells were intact | prevented this negative effect | restored the basal value | blocked GFAP gel formation to the same extent as α-crystallin from control lenses | ineffective
CC(=O)O[C@H](CC(=O)[O-])C[N+](C)(C)C [acetyl L-carnitine] | – | – | – | – | – | decreased crystallin glycation
CC(=O)Oc1ccccc1C(=O)O [acetyl salicylic acid] | – | – | – | – | – | decreased crystallin glycation
